# Experimental data as given in patent publication US6686458B2, “Synthetic molecules that specifically react with target sequences” (The Regents of the University of California, priority 1997, dated 2004).
# What was measured:
# [1] = test system: target sequence (SEQ ID NO. 1); assay: Stability of biarsenical molecule (III)/target sequence complex to 2,3 dimercapto-1-propanol (BAL); format: physicochemical; details: room temperature, 15 minutes; for effect of BAL on complex: 100 nM complex
# Method: (§1) This complex has a fluorescence quantum yield of 0.44 with excitation maximum at 508 nm and emission maximum at 528 nm (FIG. 4). The complex was of sufficient stability to remain intact in the presence of up to 100 equivalents of 2,3 dimercapto-1-propanol (BAL). Incubations with BAL were done at room temperature for 15 minutes.
# [2] = Fluorescence of the free biarsenical molecule bonded to EDT; format: physicochemical; details: before reaction with target sequence
# calmodulin+cys4 = target: T1, calmodulin+cys4 (Xenopus laevis, UniProt P0DP33, A11C/A2H/E12C/E7C/E8C); assay: Labeling of calmodulin+cys4 in transfected HeLa cells (fluorescence microscopy); format: cell-based
# T1 construct: expressed in transfected cells; host or cells: HeLa cells, pcDNA3 vector
# Description: Four cysteines were introduced into the N-terminal α-helix of xenopus calmodulin as shown below:
# The mutated calmodulin is referred to as calmodulin+cys4. The substitutions were generated by using as a PCR primer of the following oligonucleotide sequence 5′-CGCGGATCCGCCACCATGCATGACCAACTGACATGCTGCCAGATTTGCTGCTTCAAAGAAGCCTTCTCATTATTC-3′ (SEQ ID NO. 3) encoding for the expression of these substitutions. The nucleic acid sequence encoding the cysteine-substituted calmodulin was inserted into pcDNA3 vector (Invitrogen, Carlsbad, Calif.) using the BamHI and EcoRI restriction sites. After amplification in DH5 bacteria, the vector was transfected (at 37° C.) into HeLa cells using the Lipofectin system from GibcoBRL.
# Three days after transfection, the cells were treated with 1 μM biarsenical molecule (III) and 10.0 μM EDT for one hour. […] These lightly stained cells may have expressed the calmodulin+cys4 polypeptide, but at lower levels than the bright cells. […] Removal of the 1.4 neutral density filter was required to see details of the staining of the untransfected cells which appeared to be mitochondrial.
# [3] = target: T2, cyan GFP-target sequence (SEQ ID NO. 4) fusion in HeLa cells (Aequorea victoria, UniProt P42212, F64L/M153T/N146I/N212K/S65T/V163A/Y66W); assay: Measurement of FRET in HeLa cells expressing cyan GFP-target sequence fusion; format: cell-based
# T2 construct: expressed in transfected cells; host or cells: HeLa cells, pcDNA3 vector
# Description: Expression of Cyan GFP-target sequence fusion in HeLa cells. Using standard molecular biology techniques, the target sequence (SEQ ID NO. 4) (with the tryptophan in SEQ ID NO. 1 replaced by an alanine) was attached to cyan fluorescent protein (CFP). CFP is the Green Fluorescent Protein (GFP) of Aequorea victoria with the following additional mutations: F64L, S65T, Y66W, N146I, M153T, V163A, N212K. Miyawaki A., et al. Nature 388:882-7 (1997). Fusion of the target sequence to the C-terminus of cyan GFP was accomplished using a PCR primer. The PCR primer had the following oligonucleotide sequence 5′-CGGCAATTCTTAGGCCCTGGCGCAGCACTCCCTGCAGCAGGCCTCCCTGGCGGCGGCCTCGGCCTTGTACAGCTCGTCCATGCCC-3′ (SEQ ID NO. 2) encoding for the expression of the target sequence. It was inserted into the pcDNA3 vector (Invitrogen, Carlsbad, Calif.) using HindIII and EcoRl restriction sites. After amplification in DH5 bacteria, it was transfected (at 37° C.) into HeLa cells using the Lipofectin system from GibcoBRL.
# Measurement of FRET in HeLa cells. Three days after transfection, a concentration of 1.0 μM biarsenical molecule(III) and 10.0 μM ethanedithiol was applied to the transfected cells. Fluorescence changes were observed using a 440DF20 filter (Omega Optical, Brattleboro, Vt.) and a 4% transmittance neutral density filter for excitation and 480DF30 and 635DF50 filters for emission.
# HeLa cells expressing the fusion protein were contacted with biarsenical molecule (III) on a fluorescence microscope stage. […] Upon addition of 1.0 μM biarsenical molecule (III) mixed with 10 μM EDT to inhibit background staining, the intensity of fluorescence at 480 nm decreased as energy was transferred from the CFP to the biarsenical molecule (III) which had reacted with the target sequence. There was a corresponding increase in fluorescence in the 635 nm channel due to biarsenical molecule (III)/target sequence emission. Upon removal of the biarsenical molecule (III) solution, there was little change.
# [4] = test system: target sequence (SEQ ID NO. 1); assay: Fluorescence (quantum yield, excitation and emission maxima) of target sequence/biarsenical molecule complex; format: physicochemical
# Method: Formation of target sequence/biarsenical molecule (III) complex. Biarsenical molecule (III) (3 μl of 1 mM solution in DMSO) was added to 100 μl of 25 μM target sequence (SEQ. ID NO. 1) in 25 mM phosphate, pH 7.4, 100 mM KCl, 1 mM mercaptoethanesulfonate. After 1.5 hours, the reaction mixture (at room temperature) was injected onto a Dionex IonPac NS1 reverse phase HPLC column, gradient 20% to 46% acetonitrile (0.1% TFA) from 3 to 17 minutes. The complex eluted at 14.7 minutes (Free target sequence elutes at 12.6 minutes.) Mass spectrum analysis indicated a molecular weight of 2414.99 Da and the calculated molecular weight for the 1:1 complex was 2415.33 Da.
# Quantum yield of target sequence/biarsenical molecule(III) complex. Solutions of fluorescein in 0.1 N NaOH and of target sequence/biarsenical molecule(III) complex in 25 mM phosphate, pH 7.4 and 100 mM KCl were adjusted to equal absorbances (0.0388) at 499 nm. The ratio of the integrated emission (excitation at 499 nm) of target sequence/biarsenical molecule(III) complex relative to fluorescein was multiplied by 0.9, the quantum yield of fluorescein, giving a quantum yield 0.44 for the target sequence/biarsenical molecule (III) complex.
# as §1
# Formation of a complex with target sequence and the dichloro-derivative of the biarsenical molecule (III). Dichloro-derivative of the biarsenical molecule (III) (5 μl of 675 μm solution in DMSO was added to 100 μl of 25 μM target sequence (SEQ ID NO. 1) in 25 mM phosphate, pH 7.4, 100 mM KCl 1 mM mercaptoethanesulfonate. After 1.5 hours, the reaction mixture was injected onto a Dionex IonPac SN1 reverse phase HPLC column, gradient 20% to 46% acetonitrile (0.1% TFA) from 3 to 17 minutes. The complex eluted in two overlapping peaks of the same molecular weight at 16.1 and 16.4 minutes. (Free peptide elutes at 12.6 minutes.) Mass spectrum analysis indicated a molecular weight of 2484.80 Da compared to the calculated molecular weight of the 1:1 complex was 2484.22 Da.
# [5] = 1.0 μM biarsenical molecule (III) with 10 μM EDT, excitation 440 nm, transfected HeLa cells
Compound,effect of BAL on complex ([1]; 1 μM BAL),effect of BAL on complex ([1]; 10 μM BAL),effect of BAL on complex ([1]; 100 μM BAL),BAL at which complex remains intact [1],fluorescence of free molecule [2],fluorescence of free molecule ([2]; listed as biarsenical molecule of formula (III)),"fluorescence of transfected cells (calmodulin+cys4; 1 μM biarsenical molecule (III) and 10.0 μM EDT for one hour, HeLa cells transfected with calmodulin+cys4, 480 nm excitation, 535 nm emission)","fluorescence of untransfected cells (calmodulin+cys4; same concentrations of biarsenical molecule (III) and EDT, untransfected HeLa cells)","fluorescence in the 635 nm channel (complex emission) [3, 5]","intensity of fluorescence at 480 nm (CFP emission) [3, 5]",removal of biarsenical molecule from target sequence in cells (reversibility) ([3]; cells treated with 1 mM EDT),"fluorescence of untransfected cells relative to cells expressing the CFP-target sequence fusion ([3]; excitation 480 nm, signal at 535 nm, after subtraction of CFP signal)",emission maximum ([4]; complex with target sequence),excitation maximum ([4]; complex with target sequence),red shift of fluorescent signal relative to fluorescein ([4]; complex with target sequence),"quantum yield ([4]; complex with target sequence, 25 mM phosphate, pH 7.4, 100 mM KCl, excitation at 499 nm, relative to fluorescein)",red shift ([4]; dichloro-derivative compared with biarsenical molecule (III))
"O=C1OC2(c3ccccc31)c1ccc(O)c([As]3SCCS3)c1Oc1c2ccc(O)c1[As]1SCCS1 [biarsenical molecule (III), 4′,5′-bis(2-arsa-1,3-dithiolan-2-yl)fluorescein]",barely affected,barely affected,significant reduction in fluorescence,up to 100 equivalents,nonfluorescent,essentially completely nonfluorescent,bright fluorescence,only very light fluorescence,increase,decreased,fast but not complete,about 10%,528 nm,508 nm,about 20 nm,0.44,
"O=C1OC2(c3ccccc31)c1cc(Cl)c(O)c([As]3SCCS3)c1Oc1c2cc(Cl)c(O)c1[As]1SCCS1 [2′,7′-dichloro-4′,5′-bis(2-arsa-1,3-dithiolan-2-yl)fluorescein]",,,,,,,,,,,,,538 nm,518 nm,,,10 nm
